This is an account of results in patent US8653071B2, “α4β2 neuronal nicotinic acetylcholine receptor ligands” (Suven Life Sciences Limited, priority 2009, dated 2014).

Data set [1] can be described thus: Rodent pharmacokinetic study. Conditions: Wistar, Wister rat/Male. It counts as in vivo. As for the experimental part:
Rodent Pharmacokinetic Study
Three to five animals were housed in each cage. Animals were kept fasted over night and maintained on a 12 hours light/dark cycle. Three rats were dosed NCE orally (15 or 5 mg/kg) and intravenously (5 mg/kg) on day 0 and day 2
At each time point blood was collected by jugular vein. Plasma was stored frozen at −20° C. until analysis. The concentrations of the NCE compound in plasma were determined using LC-MS/MS method. Schedule time points: Pre dose 0.25, 0.5, 1, 1.5, 2, 3, 4, 6, 8, 10, 12 and 24 hours after dosing (n=3).
Pharmacokinetic parameters Cmax, Tmax, AUCt, T1/2 and Bioavailability were calculated by non-compartmental model using software WinNonlin version 5.0.1.

In data set [2] the target is Nicotinic Acetylcholine α4β2 Receptor (UniProt P09483+P12390). As to the kind of experiment: Binding assay for human or rat nicotinic acetylcholine α4β2 receptor ([3H]Cytisine displacement). Conditions: [3H]Cytisine 2.5 nM, rat brain frontal cortex or recombinant human receptor in CHO cells (not specified which). As for the experimental part: Binding Assay for Human or Rat Nicotinic Acetylcholine α4β2 Receptor
• Receptor source: Rat brain frontal cortex or recombinant human cDNA expressed in CHO cells • Radioligand: [^3H]Cytisine 15-40 Ci/mmole • Final ligand concentration—[2.5 nM] • Non-specific determinant: Epibatidine—[0.1 μM] • Reference compound: Epibatidine • Positive control: Epibatidine Incubation Conditions:
Increasing concentrations of test compounds or standard were incubated with membrane receptors and radioligand in 120 mM NaCl, 2.5 mM KCl, 1 mM CaCl2, 1 mM MgCl2 and 50 mM TRIS-HCl (pH 7.4) for 60 minutes at room temperature. The reaction was terminated by rapid vacuum filtration onto the glass fiber filters. Radioactivity trapped onto the filters was determined and compared to the control values in order to ascertain any interactions of the test compound(s) with either cloned human or rat receptor binding site.
Literature Reference: Bunnelle W. H., Daanen J. F., Ryther K. B., Schrimpf M. R., Dart M. J., Gelain A., Meyer M. D., Frost J. M., Anderson D. J., Buckley M., Curzon P., Cao Y-J., Puttfarcken P., Searle X., Ji J., Putman C. B., Surowy C., Toma L. and Barlocco D. Structure-Activity Studies and Analgesic Efficacy of N-(3-Pyridinyl)-Bridged Bicyclic Diamines, Exceptionally Potent Agonists at Nicotinic Acetylcholine Receptors. J. Med. Chem. 2007, 50, […].

Data set [3] concerns the target T1, recombinant human α4β2 nicotinic acetylcholine receptor (Homo sapiens, UniProt P17787+P43681).
T1 construct: expressed in transfected cells
As to the kind of experiment: Determination of IC50 and Kb values, aequorin luminescence (intracellular calcium) assay in CHO cells. The following applies: antagonist mode vs epibatidine. Type of data set: cell-based. Here is the method: Determination of IC50 and Kb Values for Nicotinic Acetylcholine α4β2 Receptor Ligands
A stable CHO cell line expressing recombinant human α4β2 nicotinic acetylcholine receptor transiently expressing aequorin protein was used for cell-based assay. The assay offers a non-radioactive based approach to determine binding of a compound to ligand gated ion channels. In this specific assay, the level of intracellular calcium, which is modulated by activation or inhibition of the channel is measured. Both the channel and aequorin genes are expressed at high level under the control of powerful CMV promotor.
The above cells were grown in 96 well clear bottom white plates in Hams F12 medium containing 10% fetal bovine serum (FBS). Prior to the addition of compounds and/or agonist, cells were serum starved for six hours. Coelentarazine (a prosthetic group for aequorin protein) was added in the medium containing 0.1% dialyzed serum and incubated overnight at 27° C. Cells were washed with assay buffer and increasing concentration of the test compound or standard were added to the plate for antagonist mode. A fixed concentration of the agonist (eipbatidine) was injected into the plate and luminescence was measured for 10 seconds. For evaluation of the compound in agonist mode, increasing concentration of the standard or test compound were injected and the luminescence was measured. Luminescence units were plotted against the compound concentrations using Graphpad software. IC50 values of the compounds were defined as the concentration required in reducing the luminescent units by 50%. The Kb values were calculated by feeding the concentration of the agonist used in the assay and its EC50 value in the same software.
Literature References: Karadsheh M. S., Shah M. S., Tang X., Macdonald R. L. and Stitzel J. A. Functional characterization of mouse α4β2 nicotinic acetylcholine receptors stably expressed in HEK293T cells. J. Neurochem. 2004, 91, 1138-1150.
Background: Calcium flux is commonly read through the fluorescence of an indicator in the cells.

A short description of a further data set: in vivo. The following applies: male, Wistar, rat, po, 15 mg/kg.
The nature of data set [4]: Rodent brain penetration study. The following applies: male, Wistar, rat, brain homogenate and plasma, po, 5 mg/kg.
Method: Rodent Brain Penetration Study
(§1) Three animals were housed in each cage. Animals were given water and food ad libitum throughout the experiment, and maintained on a 12 hours light/dark cycle.
(§2) NCE compound was dissolved in water and administered orally. At Tmax (0.5, 1.0 and 2.0) animals were sacrificed to collect the plasma and brain tissue and were homogenized. Plasma and Brain was stored frozen at −20° C. until analysis. The concentrations of the NCE compound in plasma and Brain were determined using LC-MS/MS method.
(§3) The NCE compounds were quantified in plasma and brain homogenate by validated LC-MS/MS method using solid phase extraction technique. NCE compounds were quantified in the calibration range of 1-500 ng/mL in plasma and brain homogenate. Study samples were analyzed using calibration samples in the batch and quality control samples spread across the batch. Extents of brain-blood ratio were calculated (Cb/Cp).
A further data set concerns Male Wister rats. As to the kind of experiment: Acute food intake study (animal model of hyperphagia). Type of data set: in vivo, rat. The following applies: oral. Here is the method: The appetite suppressing properties of compounds of this invention were studied using an animal model of hyperphagia.
Male Wister rats (200-210 grams) obtained from Raj Biotech, India were used as experimental animals. The experiment consisted of 6 days. The rats were adapted to the 18 hour fasting and 6 hour feeding pattern. The animals were housed in a group of three in the cages provided with the fasting grills and were fasted for 18 hours. After 18 hour fasting the rats were separated and placed individually in a cage. Weighed amount of feed was provided to rats for 6 hour and the feed intake at 1, 2, 4 and 6 hours was recorded. Again the rats were regrouped and fasted for 18 hour. The above procedure was followed for 5 days. The average cumulative food intake by the rats on the last 3 days was calculated. Animals were randomised on the basis of their last three days food intake.
One group of 8 rats received vehicle (2 mL/Kg) orally and another set of animals received compound of the formula (I) orally. Then the rats were given access to food and the food intake at 1, 2, 4 and 6 hours was recorded. The food intake by the rats treated with test compound was compared with the vehicle treated group by using students‘t’ test.

The mark [5] stands for this setting: plasma, 5 mg/kg Per-Oral vs 5 mg/kg Intravenous.

Where a name gives a salt, the structure may show the parent alone. Read-outs that look alike come from different tables or passages of the source.

T1 sequence (P43681 29-627 limits assumed): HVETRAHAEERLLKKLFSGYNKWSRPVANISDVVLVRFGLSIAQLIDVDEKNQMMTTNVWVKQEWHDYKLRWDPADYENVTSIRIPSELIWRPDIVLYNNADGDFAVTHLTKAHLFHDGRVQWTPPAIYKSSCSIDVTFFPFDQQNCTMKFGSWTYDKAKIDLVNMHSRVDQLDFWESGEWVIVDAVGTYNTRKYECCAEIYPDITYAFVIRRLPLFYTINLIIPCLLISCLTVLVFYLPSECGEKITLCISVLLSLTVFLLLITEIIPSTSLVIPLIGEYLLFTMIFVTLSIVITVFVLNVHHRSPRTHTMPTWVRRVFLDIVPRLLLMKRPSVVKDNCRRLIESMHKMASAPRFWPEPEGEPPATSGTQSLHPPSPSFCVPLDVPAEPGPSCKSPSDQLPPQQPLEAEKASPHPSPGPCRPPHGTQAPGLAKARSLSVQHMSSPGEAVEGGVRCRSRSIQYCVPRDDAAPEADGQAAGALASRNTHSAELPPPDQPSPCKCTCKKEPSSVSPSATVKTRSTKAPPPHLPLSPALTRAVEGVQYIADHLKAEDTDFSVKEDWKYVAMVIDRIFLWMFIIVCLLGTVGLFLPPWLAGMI
T1 sequence (P17787 26-502): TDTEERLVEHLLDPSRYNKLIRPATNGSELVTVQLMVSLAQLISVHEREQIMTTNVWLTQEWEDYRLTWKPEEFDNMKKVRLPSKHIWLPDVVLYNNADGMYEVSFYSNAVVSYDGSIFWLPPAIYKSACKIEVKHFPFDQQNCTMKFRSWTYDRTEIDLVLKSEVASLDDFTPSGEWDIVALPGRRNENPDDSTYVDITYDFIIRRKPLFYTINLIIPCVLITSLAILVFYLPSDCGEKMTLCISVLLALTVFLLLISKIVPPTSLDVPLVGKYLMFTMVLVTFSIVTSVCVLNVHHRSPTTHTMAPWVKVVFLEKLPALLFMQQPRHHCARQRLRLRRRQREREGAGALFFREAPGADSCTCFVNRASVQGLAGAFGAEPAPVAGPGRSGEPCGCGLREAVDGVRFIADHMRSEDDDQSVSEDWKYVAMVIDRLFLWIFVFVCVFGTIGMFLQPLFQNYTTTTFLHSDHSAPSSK
Method for in vivo: Rodent Brain Penetration Study
as §1, §2, §3

For the compound `CN(C)CC1CC2CC2N1c1cncc(Br)c1.Cl` (centres unmarked) [Example 1, N-[2-(5-Bromopyridin-3-yl)-2-azabicyclo[3.1.0]hex-3-ylmethyl]-dimethylamine hydrochloride], in data set [1] (plasma, 5 mg/kg, Intravenous), the AUC(0-t) (in general, the area under the concentration-time curve up to a stated or last time point) is 901 ± 47 ng·h/mL; the highest level (Cmax) was 1940 ± 260 ng/mL; the Tmax (usually the time at which the peak concentration occurs) worked out at 8.4 ± 6 min; the half-life (in general, how long it takes for the measured level to halve) was 59.4 ± 15 min. In addition, the bioavailability in data set [1] (plasma, 15 mg/kg Per-Oral vs 5 mg/kg Intravenous) amounted to 10 ± 5%. In data set [1] (plasma, 15 mg/kg, Per-Oral), the AUC(0-t) stood at 273 ± 160 ng·h/mL, the highest level (Cmax) was 219 ± 120 ng/mL, the Tmax is 15 min and the half-life is 34.8 ± 7.8 min. For the same compound, the Ki (as a rule, the equilibrium dissociation constant of an inhibitor or competing ligand from its target) in data set [2] (read-out: Ki) amounted to 23 nM. Also, in data set [3] (read-out: Kb), the Kb (as a rule, the equilibrium dissociation constant of an antagonist, usually derived from a functional assay) worked out at 1.4 nM.
Consider `Brc1cncc(N2C(CN3CCNCC3)CC3CC32)c1` (centres unmarked) [Example 8, 2-(5-Bromopyridin-3-yl)-3-(piperazin-1-ylmethyl)-2-azabicyclo[3.1.0]hexane], for which the Ki in data set [2] (read-out: Ki) is 610 nM. The Kb in data set [3] (Kb) came to 4.6 nM.
Consider `Brc1cncc(N2C(CN3CCNCC3)CC3CC32)c1` (centres unmarked) [Example 9, 2-(5-Bromopyridin-3-yl)-3-(piperazin-1-ylmethyl)-2-aza-bicyclo[3.1.0]hexane], for which, in data set [3] (Kb), the Kb came to 73.1 nM.
As to `CN(C)CC1CC2CC2N1c1cccnc1` (centres unmarked) [Example 10, N-[2-(Pyridin-3-yl)-2-azabicyclo[3.1.0]hex-3-ylmethyl]dimethylamine], in data set [2] (read-out: Ki), the Ki worked out at 77 nM. The Kb in data set [3] (read-out: Kb) stood at 3.4 nM.
`CNCC1CC2CC2N1c1cncc(Br)c1` (centres unmarked) [Example 11, N-[2-(5-Bromopyridin-3-yl)-2-azabicyclo[3.1.0]hex-3-ylmethyl]methylamine]: in data set [1] (in vivo, 5 mg/kg, Intravenous), the AUC(0-t) is 2540 ± 1300 ng·h/mL, the highest level (Cmax) was 1440 ± 330 ng/mL, the Tmax amounted to 4.8 min and the half-life was 87 ± 31.8 min. In data set [1] (in vivo, 15 mg/kg Per-Oral vs 5 mg/kg Intravenous), the bioavailability was found to be 59 ± 31%. Further, in data set [1] (in vivo, 15 mg/kg, Per-Oral), the AUC(0-t) was 3880 ± 846 ng·h/mL, the Cmax (usually the highest concentration seen after dosing) is 1990 ± 435 ng/mL, the Tmax is 18.6 ± 7.8 min and the half-life is 115 ± 72 min. In addition, in data set [2] (read-out: Ki), the Ki is 46.4 nM. The compound also gave a Kp in “in vivo” of 8.75 ± 1.59.
For `NCC1CC2CC2N1c1cccnc1` (centres unmarked) [Example 18, [2-(Pyridin-3-yl)-2-azabicyclo[3.1.0]hex-3-yl] methylamine fumarate], the bioavailability in data set [1] (in vivo, 5 mg/kg Per-Oral vs 5 mg/kg Intravenous) is 87 ± 24%. In addition, in data set [1] (in vivo, 5 mg/kg, Intravenous), the AUC(0-t) turned out to be 1760 ± 228 ng·h/mL, the Cmax was 701 ± 213 ng/mL, the Tmax stood at 22.8 ± 8.4 min and the half-life was 85.8 ± 6.6 min. In data set [1] (in vivo, 5 mg/kg, Per-Oral), the AUC(0-t) was found to be 1540 ± 165 ng·h/mL, the Cmax is 355 ± 53 ng/mL, the Tmax stood at 4.8 min and the half-life is 105 ± 24 min. In addition, in data set [2], the Ki was determined as 6.4 nM. The Kp in data set [4] was 3.52 ± 0.13. For the same compound, the Inference result with Male Wister rats was “Active”. For the same compound, the “% Suppression of food intake compared to vehicle, 1 Hour” value in the data set with Male Wister rats (1 Hour, 18 hour fasted rats) is listed as 36.80%. Further, in the data set on Male Wister rats (2 Hour, 18 hour fasted rats), the “% Suppression of food intake compared to vehicle, 2 Hour” value turned out to be 33.05%. For the same compound, the “% Suppression of food intake compared to vehicle, 4 Hour” value with Male Wister rats (4 Hour, 18 hour fasted rats) is given as 30.02%. Besides, the “% Suppression of food intake compared to vehicle, 6 Hour” value with Male Wister rats (6 Hour, 18 hour fasted rats) was found to be 25.38%.
As for `CNCC1CC2CC2N1c1cncnc1.O=C(O)/C=C/C(=O)O` (centres unmarked) [Example 21, N-(2-(pyrimidin-5-yl)-2-azabicyclo[3.1.0]hex-3-ylmethyl)methyl amine fumarate], in data set [1] (setting [5]), the bioavailability stood at 101 ± 20%. Besides, in data set [1] (plasma, 5 mg/kg, Intravenous), the area under the curve AUC(0-t) worked out at 2030 ± 525 ng·h/mL, the Cmax came out at 1570 ± 261 ng/mL, the Tmax stood at 4.8 min and the half-life is 85.8 ± 10.8 min. Moreover, in data set [1] (plasma, 5 mg/kg, Per-Oral), the AUC(0-t) is 1970 ± 100 ng·h/mL, the peak level (Cmax) was 685 ± 107 ng/mL, the Tmax is 37.8 ± 15 min and the half-life is 78 ± 22.2 min. In addition, the Ki in data set [2] (read-out: Ki) is 465 nM. In data set [4], this compound displayed a Kp of 1.74 ± 0.27.
As to `CNCC1CC2CC2N1c1ccc(C(F)(F)F)nc1.O=C(O)/C=C/C(=O)O` (centres unmarked) [Example 23, N-(2-(2-trifluoromethylpyridin-5-yl)-2-azabicyclo[3.1.0]hex-3-ylmethyl) methyl amine fumarate], the bioavailability in data set [1] (setting [5]) was 67 ± 9%. Also, in data set [1] (plasma, 5 mg/kg, Intravenous), the AUC(0-t) was 18000 ± 3300 ng·h/mL, the concentration peaked (Cmax) at 3640 ± 89 ng/mL, the time to peak (Tmax) was 4.8 min and the half-life is 415 ± 145 min. In data set [1] (plasma, 5 mg/kg, Per-Oral), the AUC(0-t) came out at 12000 ± 1740 ng·h/mL, the highest level (Cmax) was 2310 ± 163 ng/mL, the time to peak (Tmax) worked out at 19.8 ± 8.4 min and the half-life is 307 ± 11.4 min. Further, the Ki in data set [2] (read-out: Ki) came to 2 nM. In addition, in data set [4], the Kp amounted to 1.97 ± 0.08.
